System: human fibrosarcoma HT1080 cells
Assay type: cell-based

Row | SMILES | protection of HT1080 cells against WT-PA plus FP59
1 | CNC(=O)[C@H](Cc1c[nH]c2ccccc12)NC(=O)[C@@H](CC(=O)NO)CC(C)C [GM6001] | did not protect
2 | CNC(=O)[C@@H](NC(=O)[C@H](CC(C)C)[C@H](O)C(=O)NO)C(C)(C)C [BB-2516, Marimastat] | did not protect

Source: patent US9403872B2 (priority 1999, dated 2016)
